Columns and labels:
Details in all cases: 72 h
Vero E6 [1] = assay: drug sensitivity score (DSS) for viability; higher = more toxic; extreme values may be limits of the assay
Calu-3 [2] = assay: as above
HepG2 [3] = assay: as above
Caco-2 [4] = assay: as above
Vero E6 [5] = assay: cell viability relative to DMSO; higher = less toxic
Calu-3 [6] = assay: as above
HepG2 [7] = assay: as above
Caco-2 [8] = assay: as above
Vero E6 [9] = assay: relative viability EC50 (midpoint between 100% and the lowest measured viability); higher = less toxic
Calu-3 [10] = assay: as above
HepG2 [11] = assay: as above
Caco-2 [12] = assay: as above
U2OS [13] = assay: drug sensitivity score (DSS) for viability; higher = more toxic; extreme values may be limits of the assay
U2OS [14] = assay: cell viability relative to DMSO; higher = less toxic
U2OS [15] = assay: relative viability EC50 (midpoint between 100% and the lowest measured viability); higher = less toxic

SMILES	drug sensitivity score (Vero E6 [1])	drug sensitivity score (Calu-3 [2])	drug sensitivity score (HepG2 [3])	drug sensitivity score (Caco-2 [4])	cell viability (Vero E6 [5]; 1 nM) [%]	cell viability (Vero E6 [5]; 10 nM) [%]	cell viability (Vero E6 [5]; 100 nM) [%]	cell viability (Vero E6 [5]; 1000 nM) [%]	cell viability (Vero E6 [5]; 10000 nM) [%]	cell viability (Calu-3 [6]; 1 nM) [%]	cell viability (Calu-3 [6]; 10 nM) [%]	cell viability (Calu-3 [6]; 100 nM) [%]	cell viability (Calu-3 [6]; 1000 nM) [%]	cell viability (Calu-3 [6]; 10000 nM) [%]	cell viability (HepG2 [7]; 1 nM) [%]	cell viability (HepG2 [7]; 10 nM) [%]	cell viability (HepG2 [7]; 100 nM) [%]	cell viability (HepG2 [7]; 1000 nM) [%]	cell viability (HepG2 [7]; 10000 nM) [%]	cell viability (Caco-2 [8]; 1 nM) [%]	cell viability (Caco-2 [8]; 10 nM) [%]	cell viability (Caco-2 [8]; 100 nM) [%]	cell viability (Caco-2 [8]; 1000 nM) [%]	cell viability (Caco-2 [8]; 10000 nM) [%]	relative viability EC50 (Vero E6 [9]) [µM]	relative viability EC50 (Calu-3 [10]) [µM]	relative viability EC50 (HepG2 [11]) [µM]	relative viability EC50 (Caco-2 [12]) [µM]	drug sensitivity score (U2OS [13])	cell viability (U2OS [14]; 1 nM) [%]	cell viability (U2OS [14]; 10 nM) [%]	cell viability (U2OS [14]; 100 nM) [%]	cell viability (U2OS [14]; 1000 nM) [%]	cell viability (U2OS [14]; 10000 nM) [%]	relative viability EC50 (U2OS [15]) [µM]
CN(c1ncccc1CNc1nc(Nc2ccc3c(c2)CC(=O)N3)ncc1C(F)(F)F)S(C)(=O)=O	5.1	2.8	9	3.9	98.5	101	87.8	83.9	41.5	108	104	100	108	39.5	108	113	108	74.1	7.9	105	111	107	91.5	53.1	1.64	3.74	1.46								
O=C(NCCCCCCNC(=O)ON=C1CCCCC1)ON=C1CCCCC1	0	0	0	0	98.8	103	99.5	100	105	98.4	95.9	108	98.8	99.6	99.2	104	100	94.6	93.9	105	98.1	98.3	103	102	> 10	> 10	> 10	> 10							
O=S1(=O)N[C@H]2CCCN2c2ccccc21	0	0	0.1	0	101	100	98	89.5	96.7	93.3	106	108	104	101	96.8	99.3	89.7	104	86.7	100	96.7	88.4	104	113	> 10	> 10	> 10	> 10							
CC1(C)CCC(C)(C)c2cc(C(=O)Nc3ccc(C(=O)O)cc3)ccc21 [AM-580]	0	7.7	0	0	103	106	102	101	96.5	89.5	83.4	71.6	77.3	81.6	92.6	101	101	102	97.3	95.5	99.1	98.1	95.6	93.9	> 10		> 10	> 10	0	100	96.7	95.6	90.5	95.6	> 10
CC[C@H](CC#N)OC(=O)N[C@@H](C)c1cccc(NC(=O)Nc2ccc(-c3cnco3)c(OC)c2)c1 [AVN-944]	8	9.1	11.5	9.1	97.8	108	103	67.6	30.2	97.6	92.9	88.7	57.3	58.2	89	106	101	37.6	29	102	94.1	93.6	54.8	48	1.06		0.464	0.319	10.7	105	101	102	45.2	22.2	0.707
Cc1nnc(C[C@@H]2C=C(c3ccc(Cl)cc3)c3ccccc3-n3c(C)nnc32)o1 [BET-BAY-002]	17.5	7.4	9.2	4.9	94.6	98	72.1	23.3	16.2	93.1	103	94.7	62.5	53.9	91	94.1	87	58.6	41.5	96.9	97.1	90.4	74.8	68.3	0.169		0.355		8.6	97.1	101	88.2	61.4	36.9	0.557
CCCC[C@@H](NC(=O)[C@@H](Cc1cn(C(=O)OC)c2ccccc12)NC(=O)[C@H](CC(C)(C)C)NC(=O)N1[C@H](C)CCC[C@@H]1C)C(=O)O [BQ-788]		0	0	0						98.9	98.3	112	106	97.2	89.9	88.1	104	107	101	102	104	96.1	106	104		> 10	> 10	> 10	0	97.1	90.1	95.8	105	99.8	> 10
CCCCCCCCCCC(C)(C)C(=O)Nc1c(OC)cc(OC)cc1OC [CI-976]		0	0	0						101	97.6	95.5	112	99.3	105	103	103	102	96.5	98.7	97.9	91.7	99.5	90.2		> 10	> 10	> 10	0	100	101	98.9	103	97.9	> 10
CC1(C)CCC(C)(C)c2cc(C#Cc3ccc(C(=O)O)cc3)ccc21 [EC-23]	0	5.2	0	1.7	102	99.6	100	97.4	94.2	106	88.7	83.9	63.9	85.7	96.5	108	104	108	106	104	105	89.1	88.8	80.6	> 10		> 10	> 10	0	105	100	98.4	95.7	97.4	> 10
CCOc1cc2ncc(C#N)c(Nc3ccc(OCc4cccc(F)c4)c(Cl)c3)c2cc1NC(=O)/C=C/CN(C)C [HKI-357]	9.8	10.7	7	8.6	99.7	106	92.6	65.3	0.2	101	81	51.5	94.1	32.9	97	93.6	102	90.9	0.3	94.4	95.3	88.1	77.9	6	1.37	0.373	2.41	1.63							
CO[C@@H]1COCC[C@@H]1N[C@@H]1CC[C@@](C(=O)N2CCc3ncc(C(F)(F)F)cc3C2)(C(C)C)C1 [MK-0812]	0		0	0	102	100	111	106	97.2						96.5	82.9	90.3	94.7	98.4	110	95.7	99	113	97.5	> 10		> 10	> 10	0	98.8	106	101	106	103	> 10
O=S(=O)(N[C@H]1CC[C@@](c2cc(F)ccc2F)(S(=O)(=O)c2ccc(Cl)cc2)CC1)C(F)(F)F [MRK-560]		0	2.1	0						96.2	91.2	104	97.7	102	98.5	91.2	106	81.5	86.4	88.8	99.1	94.5	94.7	95.6		> 10	> 10	> 10	0	99.9	102	100	101	95.9	> 10
O=C(Nc1nc2ccc(NC(=O)C34CC5CC(CC(C5)C3)C4)cc2s1)c1ccccc1 [NVP-231]	4.4	3.8	6.4	5.2	101	96.1	90.3	93.9	38.4	100	96.1	91.8	93.1	50.3	83.9	98.2	91.6	74.1	35.4	95.6	89.2	106	86.3	43.5	2.34		1.24	1.58	4	100	93.8	99.3	91.9	49.6	1.93
O=C(NC[C@H]1CN(c2ccc(N3CCOCC3=O)cc2)C(=O)O1)c1ccc(Cl)s1 [Rivaroxaban (Xarelto)]		0	0	0						96.4	89.7	105	102	96.4	102	102	97.1	110	90.9	92.6	95.4	101	86.9	91		> 10	> 10	> 10	0	103	99.1	102	96	102	> 10
NS(=O)(=O)c1ccc(-n2nc(C(F)(F)F)cc2-c2ccc(Cl)cc2)cc1 [SC-236]	0		0	0.7	94.7	93.3	91.6	91.6	100						111	99.5	101	101	103	102	92	86.3	96.6	82.8	> 10		> 10	> 10	0	99.1	96	98.1	102	103	> 10
NC(=O)Nc1sc(-c2ccc(F)cc2)cc1C(N)=O [TPCA-1]	2.7	1.4	4.7	7.2	104	98.3	101	98.2	52	98.1	104	97.7	96.4	75.9	99.5	95.8	94.2	80.6	49.8	95.6	99.4	94.2	76.6	25.8		> 10	1.3	1.44	3.8	100	104	95.9	94.6	45.3	2.35
